Target: T1, uridine nucleoside ribohydrolase (UNH) (Trichomonas vaginalis, UniProt A2FTT0)
T1 sequence (A2FTT0 1-347): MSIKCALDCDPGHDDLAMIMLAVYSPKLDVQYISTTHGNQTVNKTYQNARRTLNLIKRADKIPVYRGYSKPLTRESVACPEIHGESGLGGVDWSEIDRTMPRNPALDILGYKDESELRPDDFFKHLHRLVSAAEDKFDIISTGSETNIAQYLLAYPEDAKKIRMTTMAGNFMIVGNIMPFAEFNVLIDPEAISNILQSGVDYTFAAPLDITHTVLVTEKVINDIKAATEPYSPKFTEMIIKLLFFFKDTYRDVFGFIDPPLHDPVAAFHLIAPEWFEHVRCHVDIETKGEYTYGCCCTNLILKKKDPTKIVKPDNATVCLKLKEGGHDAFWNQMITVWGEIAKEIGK
Test: 19F NMR-based activity assay
Type: biochemical
Conditions: from UNH potency and heavy atom count

Row | Structure (SMILES) | LE (ligand efficiency)
1 | CSc1nc2ccccc2[nH]1 [2-methylthiobenzimidazole] | 0.53
2 | COc1ccc2[nH]c([S+]([O-])Cc3ncc(C)c(OC)c3C)nc2c1 (centres unmarked) [omeprazole] | 0.36
